Results from patent US20210395327A1, “Growth Hormone-Releasing Hormone Antagonists and Uses Thereof” (United States Government As Represented By The Department …, priority 2019, published 2021).
Non-standard residues stand in square brackets, D forms with d. Residues, ends and D or L forms follow the SMILES beside them. *: point of attachment. Phenylacetyl(2,3,4,5,6-F5) = O=C(Cc1c(F)c(F)c(F)c(F)c1F)*; Phe(F5) = N[C@@H](Cc1c(F)c(F)c(F)c(F)c1F)C(=O)O; Phe(4-Cl) = N[C@@H](Cc1ccc(Cl)cc1)C(=O)O; hArg = N=C(N)NCCCC[C@H](N)C(=O)O; 12Ado = NCCCCCCCCCCCC(=O)O; Nle = CCCC[C@H](N)C(=O)O; Orn = NCCC[C@H](N)C(=O)O; Abu = CC[C@H](N)C(=O)O

Experiments:
[1] = system: HT-29 colon cancer cells; test: In vitro cell viability, HT-29; type: cell-based, human; details: Table 3B; 5 μM for 72 H; MIA-602 = 1
Experimental: The inhibitory effects of the various synthesized GHRH antagonists were tested in cell proliferation assays in various human cancer cell lines including stomach cancer (KATOIII, N87), colon cancer (HT-29), urothelial cancer (J82, RT4), pancreatic cancer (PANC-1, CFPAC-1), prostatic cancer (PC3), breast cancer (MX-1, HCC1806), ovarian cancer (SK-OV-3, OVCAR-3) and lung cancer (HCC827, H460).
(§1) Cell culture. Human cancer cell lines including pancreatic (PANC-1 and CFPAC-1), lung (HCC827 and H460), stomach (NCI-N87 and KATOIII), urothelial (J82, RT4), prostatic (PC3), breast (MX-1 and HCC 1806), colorectal (HT-29), and ovarian (SK-OV-3 and OVCAR-3) were obtained from the American Type Culture Collection (ATCC) and cultured at 37° C. in a humidified 95% air/5% CO2 atmosphere in the medium recommended by ATCC.
In vitro cell viability. Cell viability was analyzed as follows: cancer cells including pancreatic (PANC-1 and CFPAC-1), lung (HCC827 and H460), stomach (NCI-N87 and KATOIII), urothelial (J82, RT4), prostatic (PC3) and breast (MX-1 and HCC 1806), colorectal (HT-29) and ovarian (SK-OV-3 and OVCAR-3) were grown on 96 well plates to ˜60% confluence, the cells were starved for 24 h in culture medium containing 0.5% FBS. Cells were then treated with GHRH antagonists MIA602 AVR compounds at concentrations of 1, 2.5 or 5 μM, or vehicle (0.1% DMSO) in quintuplicates for 72 hours. The medium was replaced every 48 hours. Cell viability was measured using CellTiter 96 aqueous one solution kit (Promega). Inhibitory effects of tested AVR compounds in comparison to that of MIA602 are presented as inhibitory potency.
Inhibitory effects of selected AVR compounds in comparison to that of MIA602 are presented as inhibitory potency (e.g., percentage of inhibition). […] The cell lines tested including lung cancer HCC827 (FIG. 2A), pancreatic cancer CFPAC-1 (FIG. 2B), stomach cancer N87 (FIG. 2C), colon cancer HT-29 (FIG. 2D), breast cancers MX-1 and HCC1806 (FIGS. 2 E, F). Based on the results of cell proliferation assay after cancer cells were treated with antagonist at concentration of 5 μM for 72H, the relative inhibitory potency of AVR antagonists in comparison to MIA-602 is summarized in Table 3 A and B. Over 60 AVR compounds were tested in 12 cancer cell lines.
Based on the results of cell proliferation assay after cancer cells were treated with antagonist at concentration of 5 µM for 72H, * at concentration of 2 µM for 72 H.

[2] = system: lung cancer HCC827 xenograft; test: Xenograft tumor growth in nude mice, HCC827; type: in vivo; details: Table 4B, Lung Ca HCC827, 7 weeks, 5 μg/day s.c.; for % Inhibition: vs control
Experimental: The peptides' activity was compared with GHRH antagonist MIA-602. All statistical analyzses were performed from comparing GHRA antagonists to non-treated tumor (control).
Peptides and chemicals. GHRH antagonists MIA-602 and AVR-GHRH antagonists (see Table 2 above) were synthesized by solid phase methods and purified by HPLC. The peptides were dissolved in DMSO and further diluted in 10% 1,2-propanediol. The final concentration of peptides was 50 µg/ml in 10% 1,2-propanediol containing 0.1% of DMSO.
as §1, with “(NCI-N87), prostate” for “(NCI-N87 and KATOIII), urothelial (J82, RT4), prostatic”, “brest” for “breast”, “HCC-1806),” for “HCC 1806),”
Xenograft models of human cancers in nude mice. Female athymic (NCr nu/nu) nude mice, 5- to 6-weeks-old, obtained from the Envigo labs (Tampa, Fla.), were housed in laminar airflow cabinets under pathogen-free conditions with a 12-h light/12-h dark schedule, and were fed autoclaved standard chow and water. To generate mice with xenografted tumors, tumor xenografts were initiated by subcutaneous (s.c.) injection of 107 human cancer cells into female nude mice. After about 4 weeks the resulting tumors were dissected and collected after removing necrosis tissues. The tumors were then cut into particles with size of 3 mm3 and transplanted s.c. by trocar needle into experimental animals. When tumors grew to the size of 50-60 mm3 (by volume), mice were randomized into groups and treated daily for 4-8 weeks by subcutaneous administration of 5 μg of GHRH antagonists MIA-602 or AVR-compounds (2-10 μg as indicated), or vehicle solutions (0.1% DMSO in 10% 1,2-propanediol) respectively. Tumor sizes were measured weekly.
Statistical analysis. One-way ANOVA followed by Bonferroni comparison were performed. Data are expressed as Mean±SEM. To determine statistical significance between animal groups, two-tailed Student's t-test was conducted. Differences were considered significant when p<0.05.
Results. […] FIG. 1A-N represents in vivo inhibition of tumor growth during the treatment with GHRH antagonist MIA-602 and selected AVR antagonists in nude mice xenografted with various human tumors including pancreatic cancer PANC-1 (FIG. 1A) and CFPAC-1 (FIG. 1I); lung cancer HCC827 (FIGS. 1B, C) and H460 (FIG. 1H); stomach cancer N87 (FIGS. 1D-F); colon cancer HT-29 (FIG. 1G); breast cancer MX-1 and HCC-1806 (FIGS. 1J, K); ovarian cancer SK-OV-3 and OVACAR-3 (FIGS. 1 L, M) and prostate cancer PC3 (FIG. 1N). See also Table 5.

## CCCC[C@H](NC(=O)[C@@H](NC(=O)[C@H](CC(=O)O)NC(=O)[C@H](CCC(N)=O)NC(=O)[C@H](CC(C)C)NC(=O)[C@H](CC(C)C)NC(=O)[C@H](CCCCN)NC(=O)[C@H](CCCNC(=N)N)NC(=O)[C@H](C)NC(=O)[C@H](CO)NC(=O)[C@H](CC(C)C)NC(=O)[C@H](CCC(N)=O)NC(=O)[C@H](CC)NC(=O)[C@H](CC(C)C)NC(=O)[C@@H](NC(=O)[C@H](CCCCN)NC(=O)[C@H](CCCNC(=N)N)NC(=O)[C@H](Cc1ccc(OC)cc1)NC(=O)[C@H](CCCCNC(=N)N)NC(=O)[C@H](C)NC(=O)[C@@H](NC(=O)[C@H](Cc1c(F)c(F)c(F)c(F)c1F)NC(=O)[C@@H](NC(=O)[C@H](C)NC(=O)[C@H](CC(=O)O)NC(=O)[C@@H](CCCNC(=N)N)NC(=O)[C@H](Cc1ccc(O)cc1)NC(=O)CCCCCCCCCCCNC(=O)Cc1c(F)c(F)c(F)c(F)c1F)[C@@H](C)CC)[C@@H](C)O)C(C)C)[C@@H](C)CC)C(=O)N[C@H](CCCNC(=N)N)C(=O)N[C@@H](CCCCNC(=N)N)C(=O)NC [AVR-235] ({Phenylacetyl(2,3,4,5,6-F5)-12Ado}-Y[dR]DAI[Phe(F5)]TA[hArg]Y(Me)RKVL[Abu]QLSARKLLQDI[Nle][dR][hArg]-NHMe)
[1]
  In vitro relative inhibitory potency in comparison to MIA-602, HT-29: 0.968
[2]
  Tumor Growth %: 771.0%
  % Inhibition: 41.2%

## CCCC[C@H](NC(=O)[C@@H](NC(=O)[C@H](CC(=O)O)NC(=O)[C@H](CCC(N)=O)NC(=O)[C@H](CC(C)C)NC(=O)[C@H](CC(C)C)NC(=O)[C@H](CCCCN)NC(=O)[C@H](CCCNC(=N)N)NC(=O)[C@H](C)NC(=O)[C@H](CO)NC(=O)[C@H](CC(C)C)NC(=O)[C@H](CCC(N)=O)NC(=O)[C@H](CC)NC(=O)[C@H](CC(C)C)NC(=O)[C@@H](NC(=O)[C@H](CCCCN)NC(=O)[C@H](CCCNC(=N)N)NC(=O)[C@H](Cc1ccc(OC)cc1)NC(=O)[C@H](CCCCNC(=N)N)NC(=O)[C@H](CC(N)=O)NC(=O)[C@@H](NC(=O)[C@H](Cc1ccc(Cl)cc1)NC(=O)[C@@H](NC(=O)[C@H](C)NC(=O)[C@H](CC(=O)O)NC(=O)[C@@H](CCCNC(=N)N)NC(=O)[C@H](Cc1ccc(O)cc1)NC(=O)CCCCCCCCCCCNC(=O)Cc1c(F)c(F)c(F)c(F)c1F)[C@@H](C)CC)[C@@H](C)O)C(C)C)[C@@H](C)CC)C(=O)N[C@H](CCCNC(=N)N)C(=O)N[C@@H](CCCCNC(=N)N)C(=O)NCCCCCCCCCCCC(N)=O [AVR-333, 5FPhAC-Ada-Tyr-DArg-Asp-Ala-Ile-Cpa-Thr-Asn-Har-Tyr(Me)-Arg-Lys-Val-Leu-Abu-Gln-Leu-Ser-Ala-Arg-Lys-Leu-Leu-Gln-Asp-Ile-Nle-DArg-Har-Ada-NH2] ({Phenylacetyl(2,3,4,5,6-F5)-12Ado}-Y[dR]DAI[Phe(4-Cl)]TN[hArg]Y(Me)RKVL[Abu]QLSARKLLQDI[Nle][dR][hArg][12Ado]-NH2)
[2]
  Tumor Growth %: 407.5%
  % Inhibition: 68.9%

## CCCC[C@H](NC(=O)[C@@H](NC(=O)[C@H](CC(=O)O)NC(=O)[C@H](CCC(N)=O)NC(=O)[C@H](CC(C)C)NC(=O)[C@H](CC(C)C)NC(=O)[C@H](CCCCN)NC(=O)[C@H](CCCNC(=N)N)NC(=O)[C@H](C)NC(=O)[C@H](CO)NC(=O)[C@H](CC(C)C)NC(=O)[C@H](CCC(N)=O)NC(=O)[C@H](CC)NC(=O)[C@H](CC(C)C)NC(=O)[C@@H](NC(=O)[C@H](CCCCN)NC(=O)[C@H](CCCNC(=N)N)NC(=O)[C@H](Cc1c(F)c(F)c(F)c(F)c1F)NC(=O)[C@H](CCCCNC(=N)N)NC(=O)[C@H](C)NC(=O)[C@@H](NC(=O)[C@H](Cc1ccc(Cl)cc1)NC(=O)[C@@H](NC(=O)[C@H](C)NC(=O)[C@H](CC(=O)O)NC(=O)[C@@H](CCCNC(=N)N)NC(=O)[C@H](Cc1ccc(O)cc1)NC(=O)CCCCCCCCCCCNC(=O)Cc1c(F)c(F)c(F)c(F)c1F)[C@@H](C)CC)[C@@H](C)O)C(C)C)[C@@H](C)CC)C(=O)N[C@H](CCCNC(=N)N)C(=O)N[C@@H](CCCCNC(=N)N)C(=O)NCCCCCCCCCCCC(=O)NC [AVR-354] ({Phenylacetyl(2,3,4,5,6-F5)-12Ado}-Y[dR]DAI[Phe(4-Cl)]TA[hArg][Phe(F5)]RKVL[Abu]QLSARKLLQDI[Nle][dR][hArg][12Ado]-NHMe)
[1]
  In vitro relative inhibitory potency in comparison to MIA-602, HT-29: 1.403

## CCCC[C@H](NC(=O)[C@@H](NC(=O)[C@H](CC(=O)O)NC(=O)[C@H](CCC(N)=O)NC(=O)[C@H](CC(C)C)NC(=O)[C@H](CC(C)C)NC(=O)[C@H](CCCN)NC(=O)[C@H](Cc1c[nH]cn1)NC(=O)[C@H](C)NC(=O)[C@H](CO)NC(=O)[C@H](CC(C)C)NC(=O)[C@H](CCC(N)=O)NC(=O)[C@H](CC)NC(=O)[C@H](CC(C)C)NC(=O)[C@@H](NC(=O)[C@H](CCCN)NC(=O)[C@H](Cc1c[nH]cn1)NC(=O)[C@H](Cc1ccc(OC)cc1)NC(=O)[C@H](CCCCNC(=N)N)NC(=O)[C@H](C)NC(=O)[C@@H](NC(=O)[C@H](Cc1c(F)c(F)c(F)c(F)c1F)NC(=O)[C@@H](NC(=O)[C@H](C)NC(=O)[C@H](CC(=O)O)NC(=O)[C@@H](CCCNC(=N)N)NC(=O)[C@H](Cc1ccc(O)cc1)NC(=O)CCCCCCCCCCCNC(=O)Cc1c(F)c(F)c(F)c(F)c1F)[C@@H](C)CC)[C@@H](C)O)C(C)C)[C@@H](C)CC)C(=O)N[C@H](CCCNC(=N)N)C(=O)N[C@@H](CCCCNC(=N)N)C(=O)NCCCCCCCCCCCC(N)=O [AVR-553, 5FPhAC-Ada-Tyr-DArg-Asp-Ala-Ile-5FPhe-Thr-Ala-Har-Tyr(Me)-His-Orn-Val-Leu-Abu-Gln-Leu-Ser-Ala-His-Orn-Leu-Leu-Gln-Asp-Ile-Nle-DArg-Har-Ada-NH2] ({Phenylacetyl(2,3,4,5,6-F5)-12Ado}-Y[dR]DAI[Phe(F5)]TA[hArg]Y(Me)H[Orn]VL[Abu]QLSAH[Orn]LLQDI[Nle][dR][hArg][12Ado]-NH2)
[2]
  Tumor Growth %: 1132.0%
  % Inhibition: 13.7%
